{"source": "ChEMBL document CHEMBL1132672", "about": "“Substituted 7H-pyrido[4,3-c]carbazoles with potent anti-HIV activity” (Bioorg Med Chem Lett, 1999)", "key": {"H9 [1]": {"tested_on": "H9", "assay": "Inhibitory concentration required to inhibit HIV replication in H9 lymphocytes growth by 50%", "type": "functional, cell-based", "settings": "Homo sapiens"}, "H9 [2]": {"tested_on": "H9", "assay": "Inhibitory concentration required to inhibit uninfected H9 lymphocytic cell growth by 50%", "type": "functional, cell-based", "settings": "Homo sapiens"}, "[3]": {"assay": "Therapeutic index(TI) was evaluated (IC50/EC50)", "settings": "read-out: TI"}}, "data": [{"smiles": "COc1cc2c(c3ccccc3n2C)c2c(NCCN)nccc12", "values": [{"measurement": "EC50", "setting": "H9 [1]", "result": 0.022, "unit": "µg/mL"}, {"measurement": "IC50", "setting": "H9 [2]", "result": 0.23, "unit": "µg/mL"}, {"measurement": "selectivity ratio", "setting": "[3]", "result": 10.6}]}, {"smiles": "COc1cc2c(c3ccccc3n2C)c2c(NCCCO)nccc12", "values": [{"measurement": "EC50", "setting": "H9 [1]", "result": 0.001, "unit": "µg/mL"}, {"measurement": "IC50", "setting": "H9 [2]", "result": 0.15, "unit": "µg/mL"}, {"measurement": "selectivity ratio", "setting": "[3]", "result": 153}]}, {"smiles": "COc1cc2c(c3ccccc3n2C)c2c(Cl)nccc12", "values": [{"measurement": "EC50", "setting": "H9 [1]", "result": 0.19, "unit": "µg/mL"}, {"measurement": "IC50", "setting": "H9 [2]", "result": 26, "unit": "µg/mL"}, {"measurement": "selectivity ratio", "setting": "[3]", "result": 136}]}, {"smiles": "COc1cc2c(c3ccccc3n2C)c2c(NCCN(C)C)nccc12", "values": [{"measurement": "EC50", "setting": "H9 [1]", "result": 0.026, "unit": "µg/mL"}, {"measurement": "IC50", "setting": "H9 [2]", "result": 0.23, "unit": "µg/mL"}, {"measurement": "selectivity ratio", "setting": "[3]", "result": 8.9}]}, {"smiles": "COc1cc2c(c3cnccc13)c1ccccc1n2C", "values": [{"measurement": "EC50", "setting": "H9 [1]", "result": 0.0054, "unit": "µg/mL"}, {"measurement": "IC50", "setting": "H9 [2]", "result": 2.7, "unit": "µg/mL"}, {"measurement": "selectivity ratio", "setting": "[3]", "result": 503}]}, {"smiles": "COc1cc2c(c3cc(O)ccc3n2C)c2c(Cl)nccc12", "values": [{"measurement": "EC50", "setting": "H9 [1]", "result": 1.4, "unit": "µg/mL"}, {"measurement": "IC50", "setting": "H9 [2]", "result": 5, "unit": "µg/mL"}, {"measurement": "selectivity ratio", "setting": "[3]", "result": 3.6}]}, {"smiles": "COc1cc2c(c3ccccc3n2C)c2c(NCCN3CCCCC3)nccc12", "values": [{"measurement": "EC50", "setting": "H9 [1]", "result": 0.005, "unit": "µg/mL"}, {"measurement": "IC50", "setting": "H9 [2]", "result": 0.24, "unit": "µg/mL"}, {"measurement": "selectivity ratio", "setting": "[3]", "result": 47.9}]}]}
